From patent US20250144224A1, “ABL INHIBITORS AND USES THEREOF” (The Regents of the University of California, priority 2021, published 2025)

Columns and labels:
[1] = Parallel artificial membrane permeability assay (PAMPA); type: in vitro ADME; settings: 100 μM in PBS, 5 h, LC-MS
Method: PAMPA was performed by Quintara Discovery using the BioCoat Pre-coated PAMPA Plate System (Corning) as described previously (15) and based on manufacturer's recommendations. All compounds were assessed at 100 μM in PBS. Compound concentrations in donor and acceptor compartments were quantified using liquid chromatography-mass spectrometry (LC-MS) 5 h following compound addition into the donor compartment.

ABL1 kinase domain = target: T1, ABL1 kinase domain (Homo sapiens, UniProt P00519); experiment: ATP-site kinase pulldown (KdELECT competition binding); settings: 100-fold molar excess asciminib
T1 sequence (P00519 242-493 limits assumed): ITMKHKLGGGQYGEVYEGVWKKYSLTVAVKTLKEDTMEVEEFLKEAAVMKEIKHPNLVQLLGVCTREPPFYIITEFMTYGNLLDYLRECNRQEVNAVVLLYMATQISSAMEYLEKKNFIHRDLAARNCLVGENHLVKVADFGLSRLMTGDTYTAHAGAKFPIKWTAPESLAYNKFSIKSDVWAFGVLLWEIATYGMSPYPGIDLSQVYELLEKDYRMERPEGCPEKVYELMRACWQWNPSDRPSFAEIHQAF

[2] = system: K562 CRISPRi or CRISPRa cells with IFITM1-3 expression modulation; experiment: Chemical-genetic interaction mapping (IC50 shift in cell viability assay); type: cell-based, human; settings: IFITM1-3 knockdown (CRISPRi) or overexpression (CRISPRa), 72 h
Method: Cell viability was assessed by CellTiter-Glo (CTG) Luminescent Cell Viability Assay (Promega). Cells were equilibrated to room temperature before the addition of diluted (1:4 CTG reagent:PBS) CTG reagent (100 μL per well). Plates were agitated on an orbital shaker and luminescence signal was measured on a SpectraMax M5 (Molecular Devices) or Spark (Tecan) plate reader. Repeated measurements of luminescence were performed as technical replicates to determine incubation times optimal for signal-to-noise. Luminescence measurements were normalized to DMSO-treated values to determine relative cell viability.
Cells treated with compounds were evaluated for viability as described herein. […] The same top concentrations were used in K562 CRISPRa cells with the exception of HJB97 (1 μM), JQ1 (1 μM), MZ1 (1 μM), and dBET6 (100 nM). Using Prism 9 (GraphPad Software), a 4-parameter nonlinear regression model was fit to the viability data to determine IC50 values. IC50 values of sgRNA+ cells were normalized to that of non-sgRNA expressing cells to determine sensitivity/resistance chemical-genetic interactions mapped in FIG. 4B.

[3] = system: kinases labeled by XO44 in K562 CRISPRi cells; experiment: Live cell kinase occupancy profiling with XO44 probe; settings: 100 nM, 4 h pretreatment, then XO44, live K562 CRISPRi cells
K562 cells (wild-type) = experiment: CellTiter-Glo cell viability, K562 wild-type; settings: Homo sapiens, K562, 72 h, read-out: EC50 (nM) CTG K562 wt
[4] = system: intracellular BCR-ABL1 in K562 CRISPRi/a cells; experiment: Immunoblots of pharmacodynamic markers of BCR-ABL1 inhibition; type: cell-based, human; settings: nanomolar concentrations (10 nM)
Method: FIGS. 3A-3F. […] Data represent two biological replicates. […] Data represent three biological replicates.
Cells (500,000 cells in 2 mL per well) were seeded into 6-well plates and incubated at 37° C. overnight. Following treatment with compounds at the concentrations and times indicated, cells were placed over ice, transferred to 2 mL microcentrifuge tubes, and pelleted at 500 g, 4° C. The pelleted cells were washed twice with ice-cold phosphate-buffered saline (PBS) and stored at −80° C. […] Proteins were separated by polyacrylamide gel electrophoresis (PAGE), transferred to 0.2 μm pore size nitrocellulose membranes (Bio-Rad) and blocked using blocking buffer [5% bovine serum albumin (Millipore) in Tris-buffered saline, 0.1% Tween 20 (TBST) supplemented with 0.02% NaN3]. Membranes were probed with primary antibodies against FKBP12 (ab58072) from Abcam and p-ABL1^Y245 (2861), p-CRKL^Y207 (3181), IFITM1 (13126), IFITM2 (13530), IFITM3 (59212), p-STAT5^Y694 (4322), and Tubulin (3873) from Cell Signaling Technology diluted (1:1000) in blocking buffer. After primary antibody incubation, membranes were treated with IRDye secondary antibodies (LI-COR Biosciences) according to manufacturer's recommendations and scanned on an Odyssey Imaging System (LI-COR Biosciences). Immunoblot scans were processed using ImageStudioLite 5.2.5 (LI-COR).

[5] = system: K562 cells (CRISPR base-edited Bcr-Abl T315I); experiment: CellTiter-Glo cell viability, K562 Bcr-Abl T315I; settings: Homo sapiens, K562, 72 h, read-out: EC50 (nM) CTG K562 T315I

artificial membrane permeability by PAMPA [1]: impermeable
EC50 (K562 cells (wild-type)): 2.47 nM
EC50 [5]: > 300 nM
SMILES: Cc1nc(Nc2ncc(C(=O)Nc3c(C)cccc3Cl)s2)cc(N2CCN(C(=O)CCOCCOCCOCCOCCOCCOCCOCCOCCOCCOCCOCCOCCNC(=O)C3CCN(c4ncc(C(=O)Nc5ccc(OC(F)(F)Cl)cc5)cc4-c4ccn[nH]4)CC3)CC2)n1 [DasatiLink-1]
effect of excess asciminib on ability to occupy the ATP-site (ABL1 kinase domain): impaired the ability of DasatiLink-1 to occupy the ATP-site
IFITM dependency of potency (IC50 shift in cell viability assay) [2]: validated the IFITM dependency
intracellular kinase occupancy (kinome-wide selectivity) [3]: observable intracellular occupancy of only a single kinase
time required for maximal inhibition of target [4]: multiple hours
